The source of these data is ChEMBL document CHEMBL2390898, “Optimizing the control of apoptosis by amide/triazole isosteric substitution in a constrained peptoid” (Eur J Med Chem, 2013).

Molecules are shown by their SMILES. Calls of active or inactive are those of the source. The rule behind the calls is not given here.

The target in one test is T1, Caspase-9 (Homo sapiens) (UniProt P55211).
T1 sequence (whole entry): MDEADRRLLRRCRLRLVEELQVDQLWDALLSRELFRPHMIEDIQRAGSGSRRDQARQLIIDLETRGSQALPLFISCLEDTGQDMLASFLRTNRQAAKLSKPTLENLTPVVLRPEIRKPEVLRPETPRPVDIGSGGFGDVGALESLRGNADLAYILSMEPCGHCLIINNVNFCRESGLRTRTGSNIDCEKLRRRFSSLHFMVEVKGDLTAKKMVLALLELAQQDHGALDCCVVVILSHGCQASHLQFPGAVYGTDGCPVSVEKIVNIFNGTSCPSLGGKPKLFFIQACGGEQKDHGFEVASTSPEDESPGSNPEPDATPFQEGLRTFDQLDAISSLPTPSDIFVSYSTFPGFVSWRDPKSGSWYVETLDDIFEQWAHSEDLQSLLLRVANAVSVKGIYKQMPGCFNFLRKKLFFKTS
Description: Inhibition of recombinant caspase-9 (unknown origin).

The target of test [1] is T2, Apoptotic protease-activating factor 1 (Homo sapiens) (UniProt O14727).
T2 sequence (whole entry): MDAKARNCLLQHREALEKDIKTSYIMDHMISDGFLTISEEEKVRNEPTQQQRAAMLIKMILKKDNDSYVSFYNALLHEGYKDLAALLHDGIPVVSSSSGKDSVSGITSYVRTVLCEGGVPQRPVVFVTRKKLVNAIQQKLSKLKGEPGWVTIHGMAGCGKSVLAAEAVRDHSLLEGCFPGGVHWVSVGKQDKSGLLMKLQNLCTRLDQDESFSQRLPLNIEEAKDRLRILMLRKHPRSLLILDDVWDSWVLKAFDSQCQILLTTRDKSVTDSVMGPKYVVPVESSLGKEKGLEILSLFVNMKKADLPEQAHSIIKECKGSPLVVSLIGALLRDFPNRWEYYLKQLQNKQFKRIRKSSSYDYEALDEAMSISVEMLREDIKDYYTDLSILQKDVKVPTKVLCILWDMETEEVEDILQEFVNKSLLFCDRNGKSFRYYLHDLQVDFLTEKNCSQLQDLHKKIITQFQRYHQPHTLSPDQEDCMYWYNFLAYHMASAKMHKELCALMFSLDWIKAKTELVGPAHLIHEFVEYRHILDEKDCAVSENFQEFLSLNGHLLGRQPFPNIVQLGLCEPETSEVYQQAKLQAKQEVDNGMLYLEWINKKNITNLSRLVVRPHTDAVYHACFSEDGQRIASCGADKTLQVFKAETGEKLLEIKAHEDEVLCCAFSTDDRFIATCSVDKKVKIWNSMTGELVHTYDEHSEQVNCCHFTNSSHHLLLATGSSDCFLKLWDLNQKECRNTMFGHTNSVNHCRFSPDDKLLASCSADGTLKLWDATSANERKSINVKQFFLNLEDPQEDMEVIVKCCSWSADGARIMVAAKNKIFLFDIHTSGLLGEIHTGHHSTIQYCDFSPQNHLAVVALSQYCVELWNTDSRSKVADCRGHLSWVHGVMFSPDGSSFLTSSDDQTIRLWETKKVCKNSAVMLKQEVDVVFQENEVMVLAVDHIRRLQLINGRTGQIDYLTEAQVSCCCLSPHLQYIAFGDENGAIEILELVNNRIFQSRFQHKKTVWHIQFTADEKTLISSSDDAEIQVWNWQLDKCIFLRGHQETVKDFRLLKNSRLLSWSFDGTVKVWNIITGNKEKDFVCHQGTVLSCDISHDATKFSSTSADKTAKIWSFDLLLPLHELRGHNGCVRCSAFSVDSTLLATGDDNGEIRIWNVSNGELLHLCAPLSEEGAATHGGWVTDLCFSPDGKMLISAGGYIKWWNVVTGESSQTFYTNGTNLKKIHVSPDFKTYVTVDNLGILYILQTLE
The test is described as follows: Binding affinity to Apaf1 (unknown origin) assessed as inhibition of procaspase-9 activity.

`NC(=O)CN(CCc1ccc(Cl)cc1Cl)C(=O)CC1C(=O)N(CCc2ccc(Cl)cc2Cl)CC(=O)N1CCC(c1ccccc1)c1ccccc1` (racemic): the inhibition result on Caspase-9 (Homo sapiens) is “inactive”. Besides, the inhibition entry in test [1] is “Active”.

Consider `O=C1C(c2cn(CCc3ccc(Cl)cc3Cl)nn2)N(CCC(c2ccccc2)c2ccccc2)C(=O)CN1CCc1ccc(Cl)cc1Cl` (stereo not drawn), for which the inhibition entry on Caspase-9 (Homo sapiens) was “inactive”. In test [1], the inhibition result was “Active”.

With `O=C1CC(C(=O)NCCc2ccc(Cl)cc2Cl)(c2cnn(CCc3ccc(Cl)cc3Cl)n2)N1CCC(c1ccccc1)c1ccccc1` (racemic), the inhibition entry at Caspase-9 (Homo sapiens) was “inactive”. Moreover, the inhibition entry in test [1] is “Active”.

As for `O=C1C(c2cnnn2CCc2ccc(Cl)cc2Cl)N(CCC(c2ccccc2)c2ccccc2)C(=O)CN1CCc1ccc(Cl)cc1Cl` (racemic), the inhibition entry on Caspase-9 (Homo sapiens) was “inactive”. Also, in test [1], the inhibition result was “Active”.
